Measurements reported in PubChem BioAssay (NCI).
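Five compound concentrations were applied to cells in 96-well plates for 48 hours; endpoints were derived by simple linear interpolation of the resulting dose-response curve. Here, GI50 denotes the concentration required for 50% inhibition of growth. TGI: total growth inhibition.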

Columns and labels:
Test in all cases: growth of human tumour cells (NCI), 48 h
SNB-75 CNS = tested on: SNB-75 CNS
MDA-MB-435 = tested on: MDA-MB-435
EKVX NSCLC = tested on: EKVX NSCLC
A549 NSCLC = tested on: A549 NSCLC
SK-MEL-5 melanoma = tested on: SK-MEL-5 melanoma
SF-539 CNS = tested on: SF-539 CNS
SF-268 CNS = tested on: SF-268 CNS
NCI-H226 lung = tested on: NCI-H226 lung
HOP-62 NSCLC = tested on: HOP-62 NSCLC
SK-MEL-28 melanoma = tested on: SK-MEL-28 melanoma
PC-3 prostate = tested on: PC-3 prostate
UO-31 renal = tested on: UO-31 renal
RPMI-8226 leukemia = tested on: RPMI-8226 leukemia
HT29 colon = tested on: HT29 colon
OVCAR-8 ovarian = tested on: OVCAR-8 ovarian
CAKI-1 renal = tested on: CAKI-1 renal
NCI-H23 lung = tested on: NCI-H23 lung
IGROV1 ovarian = tested on: IGROV1 ovarian
OVCAR-5 ovarian = tested on: OVCAR-5 ovarian
TK-10 renal = tested on: TK-10 renal
SW-620 colon = tested on: SW-620 colon
OVCAR-3 ovarian = tested on: OVCAR-3 ovarian
ACHN renal = tested on: ACHN renal
SN12C renal = tested on: SN12C renal
LOX IMVI melanoma = tested on: LOX IMVI melanoma
HOP-92 NSCLC = tested on: HOP-92 NSCLC
NCI-H522 lung = tested on: NCI-H522 lung
DU-145 prostate = tested on: DU-145 prostate
BT-549 breast = tested on: BT-549 breast
A498 renal = tested on: A498 renal
MCF7 breast = tested on: MCF7 breast
HCT-116 colon = tested on: HCT-116 colon
NCI-H460 lung = tested on: NCI-H460 lung
786-0 renal = tested on: 786-0 renal
UACC-257 melanoma = tested on: UACC-257 melanoma
MDA-MB-231 breast = tested on: MDA-MB-231 breast
UACC-62 melanoma = tested on: UACC-62 melanoma
OVCAR-4 ovarian = tested on: OVCAR-4 ovarian
U251 CNS = tested on: U251 CNS
HCC-2998 colon = tested on: HCC-2998 colon
RXF 393 renal = tested on: RXF 393 renal
HS 578T breast = tested on: HS 578T breast
NCI/ADR-RES ovarian = tested on: NCI/ADR-RES ovarian
SF-295 CNS = tested on: SF-295 CNS
SR leukemia = tested on: SR leukemia
M14 melanoma = tested on: M14 melanoma
CCRF-CEM leukemia = tested on: CCRF-CEM leukemia
KM12 colon = tested on: KM12 colon
MALME-3M melanoma = tested on: MALME-3M melanoma
COLO 205 colon = tested on: COLO 205 colon
MOLT-4 leukemia = tested on: MOLT-4 leukemia
HL-60(TB) leukemia = tested on: HL-60(TB) leukemia
HCT-15 colon = tested on: HCT-15 colon
SK-MEL-2 melanoma = tested on: SK-MEL-2 melanoma
K-562 leukemia = tested on: K-562 leukemia
T-47D breast = tested on: T-47D breast
SNB-19 CNS = tested on: SNB-19 CNS
SK-OV-3 ovarian = tested on: SK-OV-3 ovarian

How did the GI50 (SNB-75 CNS) turn out when `CN1CCN(Cc2ccc(NC(=O)c3cncc(C#Cc4cnc5ccc(Cl)nn45)c3)cc2C(F)(F)F)CC1` was run?
The GI50 was 972 nM.

And the TGI (SNB-75 CNS)?
Its TGI is 2100 nM.

What about the GI50 (MDA-MB-435) of the same molecule?
The GI50 was 736 nM.

And the TGI (MDA-MB-435)?
Its TGI is 2090 nM.

What about the GI50 (EKVX NSCLC) of the same molecule?
The GI50 was 910 nM.

What about the TGI (EKVX NSCLC) of the same molecule?
The TGI was 2340 nM.

And the GI50 (A549 NSCLC)?
The GI50 was 1280 nM.

What about the TGI (A549 NSCLC) of the same molecule?
Its TGI is 4.29 µM.

And the GI50 (SK-MEL-5 melanoma)?
Its GI50 is 849 nM.

What about the TGI (SK-MEL-5 melanoma) of the same molecule?
The TGI was 1590 nM.

What about the GI50 (SF-539 CNS) of the same molecule?
The GI50 was 540 nM.

What about the TGI (SF-539 CNS) of the same molecule?
The TGI was 1210 nM.

And the GI50 (SF-268 CNS)?
The GI50 was 1250 nM.

And the TGI (SF-268 CNS)?
Its TGI is 2830 nM.

What about the GI50 (NCI-H226 lung) of the same molecule?
Its GI50 is 507 nM.

What about the TGI (NCI-H226 lung) of the same molecule?
Its TGI is 2700 nM.

And the GI50 (HOP-62 NSCLC)?
The GI50 was 1270 nM.

And the TGI (HOP-62 NSCLC)?
The TGI was 3.73 µM.

And the GI50 (SK-MEL-28 melanoma)?
Its GI50 is 918 nM.

What about the TGI (SK-MEL-28 melanoma) of the same molecule?
Its TGI is 2590 nM.

And the GI50 (PC-3 prostate)?
The GI50 was 1200 nM.

What about the TGI (PC-3 prostate) of the same molecule?
The TGI was 5.24 µM.

And the GI50 (UO-31 renal)?
The GI50 was 1280 nM.

What about the TGI (UO-31 renal) of the same molecule?
Its TGI is 3.36 µM.

What about the GI50 (RPMI-8226 leukemia) of the same molecule?
The GI50 was 954 nM.

What about the TGI (RPMI-8226 leukemia) of the same molecule?
Its TGI is 2690 nM.

And the GI50 (HT29 colon)?
Its GI50 is 747 nM.

What about the TGI (HT29 colon) of the same molecule?
The TGI was 5.71 µM.

And the GI50 (OVCAR-8 ovarian)?
Its GI50 is 1460 nM.

And the TGI (OVCAR-8 ovarian)?
The TGI was 5.27 µM.

What about the GI50 (CAKI-1 renal) of the same molecule?
The GI50 was 1000 nM.

And the TGI (CAKI-1 renal)?
The TGI was 4.63 µM.

And the GI50 (NCI-H23 lung)?
Its GI50 is 751 nM.

And the TGI (NCI-H23 lung)?
The TGI was 2180 nM.

What about the GI50 (IGROV1 ovarian) of the same molecule?
Its GI50 is 889 nM.

And the TGI (IGROV1 ovarian)?
Its TGI is 3.54 µM.

What about the GI50 (OVCAR-5 ovarian) of the same molecule?
Its GI50 is 830 nM.

What about the TGI (OVCAR-5 ovarian) of the same molecule?
Its TGI is 3.55 µM.

And the GI50 (TK-10 renal)?
Its GI50 is 1640 nM.

And the TGI (TK-10 renal)?
Its TGI is 4.46 µM.

What about the GI50 (SW-620 colon) of the same molecule?
The GI50 was 631 nM.

What about the TGI (SW-620 colon) of the same molecule?
The TGI was 3.66 µM.

What about the GI50 (OVCAR-3 ovarian) of the same molecule?
The GI50 was 1580 nM.

And the TGI (OVCAR-3 ovarian)?
Its TGI is 4 µM.

And the GI50 (ACHN renal)?
The GI50 was 769 nM.

And the TGI (ACHN renal)?
The TGI was 2940 nM.

And the GI50 (SN12C renal)?
The GI50 was 969 nM.

And the TGI (SN12C renal)?
The TGI was 3.48 µM.

And the GI50 (LOX IMVI melanoma)?
Its GI50 is 757 nM.

What about the TGI (LOX IMVI melanoma) of the same molecule?
Its TGI is 1600 nM.

And the GI50 (HOP-92 NSCLC)?
The GI50 was 454 nM.

What about the TGI (HOP-92 NSCLC) of the same molecule?
The TGI was 3.63 µM.

What about the GI50 (NCI-H522 lung) of the same molecule?
Its GI50 is 878 nM.

What about the TGI (NCI-H522 lung) of the same molecule?
The TGI was 2780 nM.

What about the GI50 (DU-145 prostate) of the same molecule?
Its GI50 is 1180 nM.

And the TGI (DU-145 prostate)?
Its TGI is 4.38 µM.

And the GI50 (BT-549 breast)?
Its GI50 is 1450 nM.

What about the TGI (BT-549 breast) of the same molecule?
The TGI was 3.85 µM.

And the GI50 (A498 renal)?
Its GI50 is 1120 nM.

What about the TGI (A498 renal) of the same molecule?
The TGI was 2600 nM.

And the GI50 (MCF7 breast)?
The GI50 was 287 nM.

What about the TGI (MCF7 breast) of the same molecule?
Its TGI is 1920 nM.

What about the GI50 (HCT-116 colon) of the same molecule?
The GI50 was 259 nM.

What about the TGI (HCT-116 colon) of the same molecule?
The TGI was 1340 nM.

What about the GI50 (NCI-H460 lung) of the same molecule?
Its GI50 is 871 nM.

What about the TGI (NCI-H460 lung) of the same molecule?
Its TGI is 2060 nM.

And the GI50 (786-0 renal)?
The GI50 was 1010 nM.

What about the TGI (786-0 renal) of the same molecule?
Its TGI is 1850 nM.

What about the GI50 (UACC-257 melanoma) of the same molecule?
Its GI50 is 1210 nM.

What about the TGI (UACC-257 melanoma) of the same molecule?
Its TGI is 4.13 µM.

What about the GI50 (MDA-MB-231 breast) of the same molecule?
The GI50 was 567 nM.

What about the TGI (MDA-MB-231 breast) of the same molecule?
The TGI was 2300 nM.

And the GI50 (UACC-62 melanoma)?
The GI50 was 925 nM.

And the TGI (UACC-62 melanoma)?
Its TGI is 2400 nM.

And the GI50 (OVCAR-4 ovarian)?
Its GI50 is 453 nM.

What about the TGI (OVCAR-4 ovarian) of the same molecule?
Its TGI is 3.66 µM.

And the GI50 (U251 CNS)?
Its GI50 is 1220 nM.

What about the TGI (U251 CNS) of the same molecule?
The TGI was 4.34 µM.

And the GI50 (HCC-2998 colon)?
The GI50 was 949 nM.

And the TGI (HCC-2998 colon)?
The TGI was 2660 nM.

And the GI50 (RXF 393 renal)?
Its GI50 is 828 nM.

And the TGI (RXF 393 renal)?
The TGI was 1770 nM.

What about the GI50 (HS 578T breast) of the same molecule?
The GI50 was 886 nM.

And the TGI (HS 578T breast)?
Its TGI is 3.29 µM.

What about the GI50 (NCI/ADR-RES ovarian) of the same molecule?
Its GI50 is 1590 nM.

What about the TGI (NCI/ADR-RES ovarian) of the same molecule?
Its TGI is 5.24 µM.

And the GI50 (SF-295 CNS)?
Its GI50 is 1380 nM.

And the TGI (SF-295 CNS)?
The TGI was 5.32 µM.

And the GI50 (SR leukemia)?
The GI50 was 975 nM.

And the TGI (SR leukemia)?
The TGI was 6.1 µM.

What about the GI50 (M14 melanoma) of the same molecule?
Its GI50 is 590 nM.

And the TGI (M14 melanoma)?
The TGI was 1340 nM.

And the GI50 (CCRF-CEM leukemia)?
Its GI50 is 1290 nM.

What about the TGI (CCRF-CEM leukemia) of the same molecule?
Its TGI is 4.84 µM.

And the GI50 (KM12 colon)?
The GI50 was 5 nM.

And the TGI (KM12 colon)?
Its TGI is 2130 nM.

What about the GI50 (MALME-3M melanoma) of the same molecule?
Its GI50 is 495 nM.

What about the TGI (MALME-3M melanoma) of the same molecule?
Its TGI is 1230 nM.

And the GI50 (COLO 205 colon)?
Its GI50 is 688 nM.

And the TGI (COLO 205 colon)?
The TGI was 2080 nM.

What about the GI50 (MOLT-4 leukemia) of the same molecule?
Its GI50 is 682 nM.

And the TGI (MOLT-4 leukemia)?
Its TGI is 3.89 µM.

And the GI50 (HL-60(TB) leukemia)?
The GI50 was 318 nM.

And the TGI (HL-60(TB) leukemia)?
Its TGI is 1470 nM.

And the GI50 (HCT-15 colon)?
The GI50 was 901 nM.

And the TGI (HCT-15 colon)?
Its TGI is 3.36 µM.

And the GI50 (SK-MEL-2 melanoma)?
The GI50 was 744 nM.

What about the TGI (SK-MEL-2 melanoma) of the same molecule?
Its TGI is 1980 nM.

And the GI50 (K-562 leukemia)?
The GI50 was 5 nM.

What about the TGI (K-562 leukemia) of the same molecule?
Its TGI is 2960 nM.

And the GI50 (T-47D breast)?
The GI50 was 1410 nM.

And the TGI (T-47D breast)?
Its TGI is 6.58 µM.

What about the GI50 (SNB-19 CNS) of the same molecule?
The GI50 was 1780 nM.

What about the TGI (SNB-19 CNS) of the same molecule?
The TGI was 4.89 µM.

What about the GI50 (SK-OV-3 ovarian) of the same molecule?
The GI50 was 1750 nM.

What about the TGI (SK-OV-3 ovarian) of the same molecule?
The TGI was 4.96 µM.
